Data taken from patent publication US20230365576A1, “BRM Targeting Compounds And Associated Methods Of Use” (Prelude Therapeutics Incorporated, priority 2022, published 2023).

What was measured:
[1] = biological target: T1, SMARCA2 (Homo sapiens, UniProt P51531); test: SMARCA2 HiBiT degradation assay in HeLa cells; format: cell-based; details: 18 hours; for DC50: read-out: SMARCA2 IC50; for Dmax: HeLa
T1 construct: SMARCA2-HiBiT knock-in Hela monoclonal cell (CS302366); host or cells: HeLa (CRISPR HiBiT knock-in monoclonal line, heterozygous)
Procedure: (§1) Example A. SMARCA2 HiBiT and SMARCA4 HiBiT Degradation Assay
(§2) Preparation of SMARCA2/4-HiBiT Knock-In Cells
(§3) HiBiT peptide knock-in of SMARCA2 in LgBiT expressing HEK293T cells was performed by CRISPR-mediated tagging system as described Promega. The homozygous HiBiT knock-in on c-terminus SMARCA2 was confirmed by sanger sequence. SMARCA2-HiBiT knock-in Hela monoclonal cell (CS302366) and SMARCA4-HiBiT knock-in Hela monoclonal cell (CS3023226) were purchased from Promega. The heterozygous HiBiT-knock-in was confirmed by sanger sequence in both SMARCA2-HiBiT and SMARCA4-HiBiT monoclonal cells.
(§4) SMARCA2 HiBiT and SMARCA4 HiBiT Degradation Assay in HeLa Cells
(§5) Compounds were dissolved in DMSO to make 10 mM stock and 3-fold series dilutions were further conducted keeping the highest concentration 10 μM. NCIH1693 and NCIH520 cells were maintained in PRMI 1640 medium (Corning Cellgro, Catalog #:10-040-CV) supplemented with 10% v/v FBS (GE Healthcare, Catalog #: SH30910.03) by splitting 1:3 twice a week.
(§6) Dispense 10 ul aliquot of prepared Hela-SMARCA2-HiBiT or Hela-SMARCA4-HiBiT cells (1:1 ratio of cells:Trypan Blue (#1450013, Bio-Rad)) onto cell counting slide (#145-0011, Bio-Rad) and obtain cell density and cell viability using cell counter (TC20, Bio-Rad). Remove appropriate volume of resuspended cells from culture flask to accommodate 2500 cells/well @ 20 μL/well. Transfer Hela-HiBiT cells to 50 mL conical (#430290, Corning). Spin down at 1000 rpm for 5 min using tabletop centrifuge (SPINCHRON 15, Beckman). Discard supernatant and resuspend cell pellet in modified EMEM (#30-2003, ATCC) cell culture media containing 10% FBS (F2422-500ML, Sigma), and 1X Penicillin/Streptomycin (200 g/L) (30-002-CI, Corning) to a cell density of 125,000 cells/mL. Dispense 20 μL of resuspended Hela-HiBit cells per well in 384-well TC treated plate (#12-565-343, Thermo Scientific) using standard cassette (#50950372, Thermo Scientific) on Multidrop Combi (#5840310, Thermo Scientific) inside laminar flow cabinet. Dispense test compounds onto plates using digital liquid dispenser (D300E, Tecan). Incubate plates in humidified tissue culture incubator @37° C. for 18 hours. Add 20 μL of prepared Nano-Glo® HiBiT Lytic detection buffer (N3050, Promega) to each well of 384-well plate using small tube cassette (#24073295, Thermo Scientific) on Multidrop Combi, incubate @ RT for 30-60 min. Read plates on microplate reader (Envision 2105, PerkinElmer) using 384 well Ultra-Sensitive luminescence mode. Raw data files and compound information reports are swept into centralized data lake and deconvoluted using automated scripts designed by TetraScience, Inc. Data analysis, curve-fitting and reporting done in Dotmatics Informatics Suite using Screening Ultra module.

[2] = biological target: T2, SMARCA4 (Homo sapiens, UniProt P51532); test: SMARCA4 HiBiT degradation assay in HeLa cells; format: cell-based; details: 18 hours; for Dmax: HeLa
T2 construct: SMARCA4-HiBiT knock-in Hela monoclonal cell (CS3023226) were purchased from Promega; host or cells: HeLa (CRISPR HiBiT knock-in monoclonal line, heterozygous)
Procedure: as §1, §2, §3, §4, §5, §6

T1 sequence (P51531 whole entry): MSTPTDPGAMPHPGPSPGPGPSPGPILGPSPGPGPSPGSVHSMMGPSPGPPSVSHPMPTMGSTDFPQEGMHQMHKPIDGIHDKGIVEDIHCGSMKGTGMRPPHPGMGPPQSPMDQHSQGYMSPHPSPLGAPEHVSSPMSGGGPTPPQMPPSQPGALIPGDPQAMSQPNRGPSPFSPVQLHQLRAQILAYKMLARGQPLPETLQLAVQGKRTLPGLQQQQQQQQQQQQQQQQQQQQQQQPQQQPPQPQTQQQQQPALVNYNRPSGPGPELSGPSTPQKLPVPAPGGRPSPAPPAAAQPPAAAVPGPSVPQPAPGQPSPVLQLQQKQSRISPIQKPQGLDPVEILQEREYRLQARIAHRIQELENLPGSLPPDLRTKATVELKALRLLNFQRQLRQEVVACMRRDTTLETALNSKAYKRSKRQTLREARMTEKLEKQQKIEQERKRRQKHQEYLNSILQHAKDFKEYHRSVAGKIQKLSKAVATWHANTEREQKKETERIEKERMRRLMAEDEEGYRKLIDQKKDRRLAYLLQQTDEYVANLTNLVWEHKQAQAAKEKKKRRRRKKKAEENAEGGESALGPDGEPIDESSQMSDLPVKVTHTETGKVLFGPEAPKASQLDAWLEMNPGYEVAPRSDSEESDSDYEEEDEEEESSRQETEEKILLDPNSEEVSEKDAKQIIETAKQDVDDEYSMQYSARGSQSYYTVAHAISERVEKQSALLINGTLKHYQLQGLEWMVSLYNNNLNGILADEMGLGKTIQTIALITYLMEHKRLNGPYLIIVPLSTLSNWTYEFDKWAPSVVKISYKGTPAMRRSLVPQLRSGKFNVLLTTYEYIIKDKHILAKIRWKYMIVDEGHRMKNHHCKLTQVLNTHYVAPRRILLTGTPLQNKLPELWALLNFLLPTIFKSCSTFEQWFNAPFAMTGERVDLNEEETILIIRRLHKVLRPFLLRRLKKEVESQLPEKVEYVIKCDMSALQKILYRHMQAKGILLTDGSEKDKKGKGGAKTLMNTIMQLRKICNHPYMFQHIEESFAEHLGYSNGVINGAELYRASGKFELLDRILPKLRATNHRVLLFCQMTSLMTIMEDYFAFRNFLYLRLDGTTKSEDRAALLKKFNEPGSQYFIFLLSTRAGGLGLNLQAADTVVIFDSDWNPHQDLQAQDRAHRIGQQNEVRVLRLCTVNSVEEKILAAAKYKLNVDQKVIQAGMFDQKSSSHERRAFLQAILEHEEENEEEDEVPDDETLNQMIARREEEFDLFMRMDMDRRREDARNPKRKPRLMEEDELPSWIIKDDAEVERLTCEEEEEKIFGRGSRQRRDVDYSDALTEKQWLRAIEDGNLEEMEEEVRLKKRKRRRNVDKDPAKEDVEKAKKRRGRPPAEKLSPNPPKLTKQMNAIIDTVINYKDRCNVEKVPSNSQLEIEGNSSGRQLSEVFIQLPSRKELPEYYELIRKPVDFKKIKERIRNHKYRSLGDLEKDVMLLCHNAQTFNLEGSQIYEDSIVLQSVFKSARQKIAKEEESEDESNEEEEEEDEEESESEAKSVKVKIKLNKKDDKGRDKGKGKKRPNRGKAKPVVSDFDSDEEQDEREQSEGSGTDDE
T2 sequence (P51532 whole entry): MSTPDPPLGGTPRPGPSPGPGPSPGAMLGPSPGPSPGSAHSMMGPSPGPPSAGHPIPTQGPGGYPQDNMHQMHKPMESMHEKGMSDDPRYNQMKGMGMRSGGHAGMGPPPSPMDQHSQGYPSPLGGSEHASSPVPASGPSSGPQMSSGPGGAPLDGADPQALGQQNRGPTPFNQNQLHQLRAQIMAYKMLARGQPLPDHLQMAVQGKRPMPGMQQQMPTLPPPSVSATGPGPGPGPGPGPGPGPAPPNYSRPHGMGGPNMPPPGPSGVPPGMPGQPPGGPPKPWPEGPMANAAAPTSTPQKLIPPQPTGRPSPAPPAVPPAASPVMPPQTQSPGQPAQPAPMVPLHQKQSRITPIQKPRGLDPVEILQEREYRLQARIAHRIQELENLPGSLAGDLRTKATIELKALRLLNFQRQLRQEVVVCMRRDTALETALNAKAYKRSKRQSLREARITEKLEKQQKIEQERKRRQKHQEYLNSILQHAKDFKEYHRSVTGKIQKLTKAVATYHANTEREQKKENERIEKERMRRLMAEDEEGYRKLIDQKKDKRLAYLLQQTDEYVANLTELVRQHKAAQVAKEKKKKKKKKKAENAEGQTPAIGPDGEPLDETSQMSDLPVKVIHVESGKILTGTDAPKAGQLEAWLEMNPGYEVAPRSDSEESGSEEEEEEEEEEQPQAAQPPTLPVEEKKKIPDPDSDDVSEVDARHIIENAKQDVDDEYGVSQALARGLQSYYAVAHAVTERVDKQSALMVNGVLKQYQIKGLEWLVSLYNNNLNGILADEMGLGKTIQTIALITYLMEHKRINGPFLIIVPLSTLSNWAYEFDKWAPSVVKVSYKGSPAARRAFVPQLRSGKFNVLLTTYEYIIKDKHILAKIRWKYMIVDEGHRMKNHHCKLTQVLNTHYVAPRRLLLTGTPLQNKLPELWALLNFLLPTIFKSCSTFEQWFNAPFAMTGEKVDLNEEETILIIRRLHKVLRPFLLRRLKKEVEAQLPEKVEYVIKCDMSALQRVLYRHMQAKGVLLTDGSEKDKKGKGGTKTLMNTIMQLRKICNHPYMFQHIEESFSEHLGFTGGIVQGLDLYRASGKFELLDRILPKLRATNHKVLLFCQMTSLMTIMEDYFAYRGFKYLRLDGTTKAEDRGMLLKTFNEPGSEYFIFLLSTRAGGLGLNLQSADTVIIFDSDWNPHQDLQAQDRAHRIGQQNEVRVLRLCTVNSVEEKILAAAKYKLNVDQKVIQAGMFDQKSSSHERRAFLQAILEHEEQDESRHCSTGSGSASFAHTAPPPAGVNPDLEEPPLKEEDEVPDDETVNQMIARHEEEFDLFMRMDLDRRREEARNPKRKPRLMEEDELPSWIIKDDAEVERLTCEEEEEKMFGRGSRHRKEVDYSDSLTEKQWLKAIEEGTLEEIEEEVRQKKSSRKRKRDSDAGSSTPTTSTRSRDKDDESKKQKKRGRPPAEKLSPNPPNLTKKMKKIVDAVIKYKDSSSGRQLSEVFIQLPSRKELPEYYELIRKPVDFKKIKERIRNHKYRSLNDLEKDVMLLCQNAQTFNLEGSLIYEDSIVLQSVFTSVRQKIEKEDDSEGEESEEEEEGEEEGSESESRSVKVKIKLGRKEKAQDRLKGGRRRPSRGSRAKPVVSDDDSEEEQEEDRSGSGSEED

| Compound | DC50 [1] [nM] | Dmax [1] [%] | DC50 [2] [nM] | Dmax [2] [%] | SMARCA4 DMax % [2] | SMARCA2 DMax % [1] |
| --- | --- | --- | --- | --- | --- | --- |
| CC1(C)CN(CC2CCN(c3ccc4c(c3)C(=O)N(C3CCC(=O)NC3=O)C4)CC2)CCN1C(=O)N1CCN2c3cc(-c4cccc(F)c4O)nnc3NCC2(C)C1 (mixture of isomers) [Example 6, 3-(6-(4-((4-(2-(3-fluoro-2-hydroxyphenyl)-6a-methyl-6,6a,7,8,9,10-hexahydro-5H-pyrazino[1′,2′:4,5]pyrazino[2,3-c]pyridazine-8-carbonyl)-3,3-dimethylpiperazin-1-yl)methyl)piperidin-1-yl)-1-oxoisoindolin-2-yl)piperidine-2,6-dione] | < 100 | > 75 | < 100 | > 75 |  |  |
| CC1(C)CN(CC2CCN(c3ccc4c(c3)C(=O)N(C3CCC(=O)NC3=O)C4=O)CC2)CCN1C(=O)N1CCN2c3cc(-c4cccc(F)c4O)nnc3NCC2(C)C1 (mixture of isomers) [Example 7, 2-(2,6-dioxopiperidin-3-yl)-5-(4-((4-(2-(3-fluoro-2-hydroxyphenyl)-6a-methyl-6,6a,7,8,9,10-hexahydro-5H-pyrazino[1′,2′:4,5]pyrazino[2,3-c]pyridazine-8-carbonyl)-3,3-dimethylpiperazin-1-yl)methyl)piperidin-1-yl)isoindoline-1,3-dione] | < 100 | > 75 | < 100 | 50 to 75 |  |  |
| CC1(C)CN(CC2CCN(c3ccc4c(c3)C(=O)N(C3CCC(=O)NC3=O)C4)CC2)CCN1C(=O)N1CCN2c3cc(-c4cccc(Cl)c4O)nnc3NCC2(C)C1 (mixture of isomers) [Example 31, 3-(6-(4-((4-(2-(3-chloro-2-hydroxyphenyl)-6a-methyl-6,6a,7,8,9,10-hexahydro-5H-pyrazino[1′,2′:4,5]pyrazino[2,3-c]pyridazine-8-carbonyl)-3,3-dimethylpiperazin-1-yl)methyl)piperidin-1-yl)-1-oxoisoindolin-2-yl)piperidine-2,6-dione] | < 100 | 50 to 75 | < 100 | < 50 |  |  |
| CCC1CN(CC2CCN(c3ccc4c(c3)C(=O)N(C3CCC(=O)NC3=O)C4)CC2)CCN1C(=O)N1CCN2c3cc(-c4cc(F)cc(F)c4O)nnc3NC[C@H]2C1 (mixture of isomers) [Example 35, 3-(6-(4-((4-((S)-2-(3,5-difluoro-2-hydroxyphenyl)-6,6a,7,8,9,10-hexahydro-5H-pyrazino[1′,2′:4,5]pyrazino[2,3-c]pyridazine-8-carbonyl)-3-ethylpiperazin-1-yl)methyl)piperidin-1-yl)-1-oxoisoindolin-2-yl)piperidine-2,6-dione] | < 100 | > 75 | < 100 | 50 to 75 |  |  |
| C[C@@H]1CN(C[C@H]2CCN(c3ccc4c(c3)C(=O)N(C3CCC(=O)NC3=O)C4)C[C@@H]2F)C[C@H](C)N1C(=O)N1CCN2c3cc(-c4cc(F)cc(F)c4O)nnc3NC[C@H]2C1 (mixture of isomers) [Example 42, 3-(6-((rac-3R,4R)-4-(((3S,5R)-4-((S)-2-(3,5-difluoro-2-hydroxyphenyl)-6,6a,7,8,9,10-hexahydro-5H-pyrazino[1′,2′:4,5]pyrazino[2,3-c]pyridazine-8-carbonyl)-3,5-dimethylpiperazin-1-yl)methyl)-3-fluoropiperidin-1-yl)-1-oxoisoindolin-2-yl)piperidine-2,6-dione] | < 100 | > 75 | < 100 | < 50 |  |  |
| CC1(C)CN(CC2CCN(c3ccc4c(c3)C(=O)N(C3CCC(=O)NC3=O)C4)CC2)CCN1C(=O)N1CCN2c3cc(-c4cccc(F)c4O)nnc3NCC2(C)C1 (single isomer, unassigned) [Example 9, 3-(6-(4-((4-(2-(3-fluoro-2-hydroxyphenyl)-6a-methyl-6,6a,7,8,9,10-hexahydro-5H-pyrazino[1′,2′:4,5]pyrazino[2,3-c]pyridazine-8-carbonyl)-3,3-dimethylpiperazin-1-yl)methyl)piperidin-1-yl)-1-oxoisoindolin-2-yl)piperidine-2,6-dione] | < 100 | > 75 | < 100 |  | A (A=Dmax>75%) |  |
| CC1(C)CN(CC2CCN(c3ccc4c(c3)C(=O)N(C3CCC(=O)NC3=O)C4)CC2)CCN1C(=O)N1CCN2c3cc(-c4cccc(F)c4O)nnc3NCC2(C)C1 (single isomer, unassigned) [Example 10, 3-(6-(4-((4-(2-(3-fluoro-2-hydroxyphenyl)-6a-methyl-6,6a,7,8,9,10-hexahydro-5H-pyrazino[1′,2′:4,5]pyrazino[2,3-c]pyridazine-8-carbonyl)-3,3-dimethylpiperazin-1-yl)methyl)piperidin-1-yl)-1-oxoisoindolin-2-yl)piperidine-2,6-dione] | < 100 |  | < 100 |  | C (C=Dmax<50%) | A (A=Dmax>75%) |
| C[C@@H]1CN(CC2CCN(c3ccc4c(c3)C(=O)N(C3CCC(=O)NC3=O)C4)CC2)C[C@H](C)N1C(=O)N1CCN2c3cc(-c4cccc(F)c4O)nnc3NCC2(C)C1 (single isomer, unassigned) [Example 11] | < 100 | > 75 | < 100 |  | B (B=50%<Dmax≤75%) |  |

Second part, the compound after the results:

| DC50 [1] [nM] | Dmax [1] [%] | DC50 [2] [nM] | Dmax [2] [%] | SMARCA4 DMax % [2] | SMARCA2 DMax % [1] | Compound |
| --- | --- | --- | --- | --- | --- | --- |
| < 100 | > 75 | < 100 | 50 to 75 |  |  | CCC12CNc3nnc(-c4cccc(F)c4O)cc3N1CCN(C(=O)N1CCN(CC3CCN(c4ccc5c(c4)C(=O)N(C4CCC(=O)NC4=O)C5)CC3)CC1(C)C)C2 (mixture of isomers) [Example 8, 3-(6-(4-((4-(6a-ethyl-2-(3-fluoro-2-hydroxyphenyl)-6,6a,7,8,9,10-hexahydro-5H-pyrazino[1′,2′:4,5]pyrazino[2,3-c]pyridazine-8-carbonyl)-3,3-dimethylpiperazin-1-yl)methyl)piperidin-1-yl)-1-oxoisoindolin-2-yl)piperidine-2,6-dione] |
| < 100 | > 75 | < 100 | 50 to 75 |  |  | CCC12CNc3nnc(-c4cc(F)cc(F)c4O)cc3N1CCN(C(=O)N1CCN(CC3CCN(c4ccc5c(c4)C(=O)N(C4CCC(=O)NC4=O)C5)CC3)CC1(C)C)C2 (mixture of isomers) [Example 27, 3-(6-(4-((4-(2-(3,5-difluoro-2-hydroxyphenyl)-6a-ethyl-6,6a,7,8,9,10-hexahydro-5H-pyrazino[1′,2′:4,5]pyrazino[2,3-c]pyridazine-8-carbonyl)-3,3-dimethylpiperazin-1-yl)methyl)piperidin-1-yl)-1-oxoisoindolin-2-yl)piperidine-2,6-dione] |
| < 100 | > 75 | < 100 | < 50 |  |  | CCC1CN(CC2CN(c3ccc4c(c3)C(=O)N(C3CCC(=O)NC3=O)C4)C2)CCN1C(=O)N1CCN2c3cc(-c4cc(F)cc(F)c4O)nnc3NC[C@H]2C1 (mixture of isomers) [Example 29, 3-(6-(3-((4-((S)-2-(3,5-difluoro-2-hydroxyphenyl)-6,6a,7,8,9,10-hexahydro-5H-pyrazino[1′,2′:4,5]pyrazino[2,3-c]pyridazine-8-carbonyl)-3-ethylpiperazin-1-yl)methyl)azetidin-1-yl)-1-oxoisoindolin-2-yl)piperidine-2,6-dione] |
| < 100 | 50 to 75 | < 100 | < 50 |  |  | CCC12CNc3nnc(-c4cccc(F)c4O)cc3N1CCN(C(=O)N1CCN(CC3CCN(c4ccc5c(c4)C(=O)N(C4CCC(=O)NC4=O)C5=O)CC3)CC1(C)C)C2 (mixture of isomers) [Example 32, 2-(2,6-dioxopiperidin-3-yl)-5-(4-((4-(6a-ethyl-2-(3-fluoro-2-hydroxyphenyl)-6,6a,7,8,9,10-hexahydro-5H-pyrazino[1′,2′:4,5]pyrazino[2,3-c]pyridazine-8-carbonyl)-3,3-dimethylpiperazin-1-yl)methyl)piperidin-1-yl)isoindoline-1,3-dione] |
